Patent US10160771B2, “Hepatitis C virus inhibitors and uses thereof in preparation of drugs” (priority 2014, dated 2018)

Key:
[1] = test system: HCV genotype 1b (HCV-1b) replicon cells; test: HCV genotype 1b replicon luciferase assay (EC50); format: cell-based, hepatitis C virus genotype 1b (Con1 clone); conditions: 3 days, luciferase (Bright-Glo)
Procedure, shortened: (§1)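 EC50 values come from nonlinear fitting of inhibition derived from replicon luciferase signal. Cells (8000/well) were treated 3 days with duplicate 6-point, 5-fold dilutions, starting at 100, 10 or 1 nM, with 0.5% DMSO.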

[2] = test system: HCV genotype 1a (HCV-1a) replicon cells; test: HCV genotype 1a replicon luciferase assay (EC50); format: cell-based, hepatitis C virus genotype 1a (H77 clone); conditions: 3 days, luciferase (Bright-Glo)
Procedure, shortened: as §1

HCV-1b replicon cells = test: Cell Titer-fluor cell activity assay in HCV-1b replicon cells (CC50); format: cell-based; conditions: 3 days
Procedure, shortened: (§2)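 CC50 derived by nonlinear fitting of inhibition % from Cell Titer-fluor signal (405/515 nm, 30 min). Cells: genotype 1b Con1 replicon carrying E1202G, T1280I, K1846T, seeded 8000/well with compound for 3 days, 37 °C, 0.5% DMSO; 6 points, 5-fold dilution, top 100, 10 or 1 nM, duplicates.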

in vitro = format: cell-based; conditions: HCV 1a replicon cells, 3 days, Cell Titer-fluor
Method: The EC50 and CC50 values of anti-HCV compounds were determined by HCV genotype 1a (HCV-1a) and 1B (HCV-1b) stable transfer replication (replicon) cells. The source of genotype 1a replicon is H77 clones containing K1691R, K2040R and S2204I adaptive mutations. The source of genotype 1b replicon is Con1 clones containing E1202G, T1280I and K1846T adaptive mutations.
HCV Replicon Cell Lines: HCV-1a and HCV-1b Cells
The compound powder was dissolved in 100% DMSO. Then the compound was diluted 5 times with 6 points, and added into the cell plate with Echo liquid handler. Ensure the final concentration of DMSO was 0.5%. Each compound was tested in double holes. Maximum initial concentration was 100, 10 or 1 nM, 5 times dilution, 6 points.
b) Cell Culture (HCV-1a or HCV-1b Replicon Cell):
1) absorbing the culture supernatant of the cell culture and washing the cells with 10 mL PBS.
2) adding preheated pancreatin to the washed cell culture flasks, rotating culture bottle to make the bottom of the culture bottle uniformly covered by pancreatin, then placed into 37° C., 5% CO2 incubator to digest.
3) suspending cells in each T150 culture flask with 10-15 mL culture medium, absorbing 0.1 mL liquid and diluting 2 times by trypan blue solution as counted.
4) diluting cells to 8×10^4/mL with the culture medium, adding the diluted cells into the compound-containing 96-well plate (Greiner, Cat.#655090) (100 μL/well, 8000 cells/well) with automatic liquid separator (Thermo Scientific). Then place into a 37° C., 5% CO2 incubator for 3 days. Cell control well: no compound, only containing 0.5% DMSO.
5) adding chemiluminescent substrate Cell Titer-fluor to the cell well, after incubation for 30 minutes, detecting the signal by chemiluminescence detection system Envison (Ex at 405 nm and read at 515 nm). The effect of the compounds on the activity of HCV replicon cells was analyzed according to the luminescence data, which was used to calculate the CC50 values.
The EC50 or CC50 values were obtained by nonlinear fitting analysis on inhibition percentage (inh %) data with GraphPad Prism software.

[3] = Cell Titer-fluor cell activity assay in HCV-1b replicon cells (CC50); format: cell-based
Procedure, shortened: as §2

Compound	EC50 [1]	EC50 [2]	CC50 (HCV-1b replicon cells)	EC50 ([1]; Hepatitis C virus, 72 h)	EC50 ([2]; Hepatitis C virus, 72 h)	CC50 (in vitro)	CC50 at 3 days [3]
COC(=O)N[C@H](C(=O)N1CCC[C@H]1c1ncc(-c2ccc(-c3ccc(-c4cnc([C@H]5C6CCC(C6)[C@@H]5C(=O)NC(C)c5cccnc5)[nH]4)cc3)cc2)[nH]1)C(C)C (single isomer, unassigned) [AA_204_C]	0.001 to 0.1 nM	1 to 10 nM	> 1 nM				
COC(=O)N[C@H](C(=O)N1CCC[C@H]1c1ncc(-c2ccc(-c3ccc(-c4cnc([C@H]5C6CCC(C6)[C@@H]5C(=O)NC(c5cccnc5)C(C)C)[nH]4)cc3)cc2)[nH]1)C(C)C (single isomer, unassigned) [AA_233_C]	0.101 to 1 nM	10 to 100 nM	> 1 nM				
COC(=O)N[C@H](C(=O)N1CCC[C@H]1c1ncc(-c2ccc(-c3ccc(-c4cnc(C5C6CCC(C6)[C@@H]5C(=O)N[C@H](C)c5cccnc5)[nH]4)cc3)cc2)[nH]1)[C@@H](C)OC (single isomer, unassigned) [AA_253_C]	1 to 10 nM	10 to 100 nM	> 1 nM				
COC(=O)N[C@H](C(=O)N1CCC[C@H]1c1ncc(-c2ccc(-c3ccc(-c4cnc(C5C6CCC(C6)[C@@H]5C(=O)NC(C)c5cnccn5)[nH]4)cc3)cc2)[nH]1)[C@@H](C)OC (single isomer, unassigned) [AA_281_C]	0.101 to 1 nM	1 to 10 nM	> 1 nM				
COC(=O)NC(C(=O)N1CCCC1c1[nH]c(-c2ccc(-c3ccc(-c4cnc([C@@H]5CCCN5C(=O)[C@@H](NC(=O)OC)C(C)C)[nH]4)cc3)cc2)c2c1CCC2)C1CCOC1 (single isomer, unassigned) [AG_025_B]	0.001 to 0.1 nM	10 to 100 nM	> 10 nM				
COC(=O)NC(C(=O)N1CCCC1c1[nH]c(-c2ccc(-c3ccc(-c4cnc([C@@H]5CCCN5C(=O)[C@@H](NC(=O)OC)C(C)C)[nH]4)cc3)cc2)c2c1CCC2)C1CCOC1 (single isomer, unassigned) [AG_025_C]	0.101 to 1 nM	10 to 100 nM	> 10 nM				
COC(=O)N[C@H](C(=O)N1CCCC1c1ccc(-c2ccc(-c3ccc(-c4cnc([C@@H]5CCCN5C(=O)[C@@H](NC(=O)OC)[C@@H](C)OC)[nH]4)cc3)cc2)[nH]1)[C@@H](C)OC (single isomer, unassigned) [AG_072_B]	0.101 to 1 nM	1 to 10 nM	> 1 nM				
COC(=O)N[C@H](C(=O)N1CCC[C@H]1c1ncc(-c2ccc(-c3ccc(-c4cnc(C5C6CCC(C6)[C@@H]5C(=O)N[C@H](c5cccnc5)C(C)C)[nH]4)cc3)cc2)[nH]1)[C@@H](C)OC (stereo partly drawn) [AA_271_A]	0.001 to 0.1 nM	0.101 to 1 nM	> 1 nM				
COC(=O)N[C@H](C(=O)N1CCC[C@H]1c1ncc(-c2ccc(-c3ccc(-c4cnc(C5C6CCC(C6)[C@H]5C(=O)N[C@H](c5cccnc5)C(C)C)[nH]4)cc3)cc2)[nH]1)[C@@H](C)OC (stereo partly drawn) [AA_271_B]	0.101 to 1 nM	10 to 100 nM	> 1 nM				
COC(=O)NC(C(=O)N1CCC[C@H]1c1ncc(-c2ccc(-c3ccc(-c4[nH]c(C5CCCN5C(=O)[C@@H](NC(=O)OC)C(C)C)c5c4CCCC5)cc3)cc2)[nH]1)C1CCOC1 (stereo partly drawn) [AG_046]				0.101 to 1 nM	10 to 100 nM	> 100 nM	> 100 nM
COC(=O)NC(C(=O)N1CCC[C@H]1c1ncc(-c2ccc(-c3ccc(-c4[nH]c(C5CCCN5C(=O)[C@@H](NC(=O)OC)C(C)C)c5c4CCCC5)cc3)cc2)[nH]1)C1CCOC(C)C1 (stereo partly drawn) [AG_047]				0.101 to 1 nM	10 to 100 nM	> 100 nM	> 100 nM
COC(=O)N[C@H](C(=O)N1CCCC1c1ncc(-c2ccc3cc(-c4ccc(-c5[nH]c(C6CCCN6C(=O)[C@@H](NC(=O)OC)C(C)C)c6c5CCC6)cc4)ccc3c2)[nH]1)C(C)C (stereo partly drawn) [AG_048]				0.101 to 1 nM	10 to 100 nM	> 100 nM	> 100 nM
COC(=O)NC(C(=O)N1CCC[C@H]1c1ncc(-c2ccc(-c3ccc(-c4[nH]c(C5CCCN5C(=O)[C@@H](NC(=O)OC)C(C)C)c5c4CCC5)cc3)cc2)[nH]1)C1CCOC1 (stereo partly drawn) [AG_049]				0.001 to 0.1 nM	10 to 100 nM	> 100 nM	> 100 nM
COC(=O)NC(C(=O)N1CCC[C@H]1c1ncc(-c2ccc(-c3ccc(-c4[nH]c(C5CCCN5C(=O)[C@@H](NC(=O)OC)C(C)C)c5c4CCC5)cc3)cc2)[nH]1)C1CCOC(C)C1 (stereo partly drawn) [AG_050]				0.001 to 0.1 nM	1 to 10 nM	> 100 nM	> 100 nM
COC(=O)NC(C(=O)N1CCC[C@H]1c1ncc(-c2ccc3cc(-c4ccc(-c5[nH]c(C6CCCN6C(=O)[C@@H](NC(=O)OC)C(C)C)c6c5CCC6)cc4)ccc3c2)[nH]1)C1CCOCC1 (stereo partly drawn) [AG_051]				0.101 to 1 nM	1 to 10 nM	> 100 nM	> 100 nM
COC(=O)N[C@H](C(=O)N1CCC[C@H]1c1ncc(-c2ccc(-c3ccc(-c4ccc(C5CCCN5C(=O)[C@@H](NC(=O)OC)C(C)C)[nH]4)cc3)cc2)[nH]1)c1ccccc1 (stereo partly drawn) [AG_052]				0.001 to 0.1 nM	1 to 10 nM	> 100 nM	> 100 nM
COC(=O)N[C@H](C(=O)N1CCCC1c1ccc(-c2ccc(-c3ccc(-c4cnc([C@@H]5CCCN5C(=O)[C@@H](NC(=O)OC)C5CCOC(C)C5)[nH]4)cc3)cc2)[nH]1)C(C)C (stereo partly drawn) [AG_053]				0.101 to 1 nM	1 to 10 nM	> 100 nM	> 100 nM
COC(=O)N[C@H](C(=O)N1CCCC1c1ccc(-c2ccc(-c3ccc(-c4cnc(C5CCCN5C(=O)[C@@H](NC(=O)OCCF)C(C)C)[nH]4)cc3)cc2)[nH]1)C(C)C (stereo partly drawn) [AG_062]	0.101 to 1 nM	10 to 100 nM	> 10 nM				
COC(=O)N[C@H](C(=O)N1CCC[C@H]1c1ncc(-c2ccc(-c3ccc(-c4[nH]c([C@@H]5CCCN5C(=O)[C@@H](NC(=O)OC)[C@@H](C)OC)c5c4COC5)cc3)cc2)[nH]1)[C@@H](C)OC [AG_080_A]	0.001 to 0.1 nM	0.001 to 0.1 nM	> 5 nM				
COC(=O)N[C@H](C(=O)N1CC2(C[C@H]1c1ncc(-c3ccc(-c4ccc(-c5[nH]c([C@@H]6CCCN6C(=O)[C@@H](NC(=O)OC)[C@@H](C)OC)c6c5CCC6)cc4)cc3)[nH]1)OCCO2)[C@@H](C)OC [AG_089]	0.001 to 0.1 nM	1 to 10 nM	> 1 nM				
COC(=O)N[C@H](C(=O)N1CCC[C@H]1c1[nH]c(-c2ccc(-c3ccc(-c4cnc([C@@H]5CCCCN5C(=O)[C@@H](NC(=O)OC)[C@@H](C)OC)[nH]4)cc3)cc2)c2c1COC2)C(C)OC (stereo partly drawn) [AG_124]				0.001 to 0.1 nM	0.101 to 1 nM	> 100 nM	> 1 nM
